Reference: patent US20230255966A1, “A COMBINATION OF A CBP/P300 BROMODOMAIN INHIBITOR AND AN EGFR INHIBITOR FOR USE IN TREATING EGFR-MUTANT NSCLC” (TOLREMO THERAPEUTICS AG, priority 2020, published 2023)

What was measured:
HCC827 cells = assay: Gene expression analysis (qPCR of ALPP and HOPX); format: cell-based; details: HCC827, 1 μM CBP/p300 inhibitor in presence of Gefitinib, 24 h
Method: (§1) Equal amount of cDNA was then subjected to qPCR analysis using the Kapa SYBR fast kit (KK4611) in a 384 well format in a Roche Light Cycler 480. Gene expression of genes was evaluated by subtraction of housekeeping gene CT-values (b-Actin) from CT of the genes of interest, and by calculating the ΔΔCT by subtracting the DMSO control value from sample of interest to finally calculate fold change differences of treated versus control treated sample.
(§2) Data is from 2 independent experiments with qPCRs in duplicate (mean±SEM) (FIG. 1C-D).

NCI-H1975 cells = assay: Gene expression analysis (qPCR of ALPP and HOPX); format: cell-based; details: NCI-H1975, 1 μM CBP/p300 inhibitor in presence of 20 nM osimertinib, 24 h
Method: as §1, §2

HCC4006 cells = assay: Label-free determination of cell proliferation (CELIGO); details: 21 days (FIG. 10)
Method: 2000 HCC4006 (ATCC; CRL2871) were seeded into 96 well plates (Greiner BioOne 655090) one day prior to drug treatment in RPMI medium containing 10% FCS and 2 mM L-Glutamine. The next day wells were imaged label-free using brightfield imaging on a CELIGO Image Cytometer to determine the initial cell number. Subsequently cells were treated with either DMSO, with single drugs (osimertinib and each of the CBP/p300 bromodomain inhibitors) or drug combinations of 100 nM osimertinib and one CBP/p300 bromodomain inhibitor with drug concentrations given below. Plates were regularly imaged over weeks using brightfield mode (CELIGO Imaging Cytometer) to track cell proliferation in each well over time. Growth medium and treatments were replenished twice weekly. […] Cell numbers were determined using CELIGO software's built-in “direct cell counting” analysis tool in the brightfield mode.

TRIM24(Bromo.) = target: T1, TRIM24(Bromo.) (Homo sapiens, UniProt O15164); assay: BROMOscan BromoKdMAX; format: binding
T1 construct: TRIM24(Bromo.); purchased DiscoverX (BROMOscan / BromoKdMAX service); host or cells: T7 phage in E. coli host derived from BL21
Method: (§3) A BromoKdMAX was performed at DiscoverX.
(§4) The assay principle is the following: BROMOscan™ is a novel industry leading platform for identifying small molecule bromodomain inhibitors. Based on proven KINOMEscan™ technology, BRO-MOscan™ employs a proprietary ligand binding site-directed competition assay to quantitatively measure interactions between test compounds and bromodomains.
(§5) The assay was conducted as follows: For the Bromodomain assays, T7 phage strains displaying bromodomains were grown in parallel in 24-well blocks in an E. coli host derived from the BL21 strain. E. coli were grown to log-phase and infected with T7 phage from a frozen stock (multiplicity of infection=0.4) and incubated with shaking at 32° C. until lysis (90-150 minutes). The lysates were centrifuged (5,000×g) and filtered (0.2 μm) to remove cell debris. […] The liganded beads were blocked with excess biotin and washed with blocking buffer (SeaBlock (Pierce), 1% BSA, 0.05% Tween 20, 1 mM DTT) to remove unbound ligand and to reduce non-specific phage binding. […] Test compounds were prepared as 1000× stocks in 100% DMSO. Kds were determined using an 11-point 3-fold compound dilution series with one DMSO control point. […] The compounds were then diluted directly into the assays such that the final concentration of DMSO was 0.09%. All reactions performed in polypropylene 384-well plates. Each was a final volume of 0.02 ml. […] The bromodomain concentration in the eluates was measured by qPCR.

BRDT(1) = target: T2, BRDT(1) (Homo sapiens, UniProt Q58F21); assay: BROMOscan BromoKdMAX; format: binding
T2 construct: T7 phage strains displaying bromodomains were grown in parallel; purchased DiscoverX; host or cells: T7 phage in E. coli host derived from BL21
Method: as §3, §4, §5

BRD4(1, 2) = target: T3, BRD4(1, 2) (Homo sapiens, UniProt O60885); assay: BROMOscan BromoKdMAX; format: binding
T3 construct: T7 phage strains displaying bromodomains were grown in parallel; purchased DiscoverX; host or cells: T7 phage in E. coli host derived from BL21
Method: as §3, §4, §5

BRD8(1) = target: T4, BRD8(1) (Homo sapiens, UniProt Q9H0E9); assay: BROMOscan BromoKdMAX; format: binding
T4 construct: T7 phage strains displaying bromodomains were grown in parallel; purchased DiscoverX; host or cells: T7 phage in E. coli host derived from BL21
Method: as §3, §4, §5

BRD7 = target: T5, BRD7 (Homo sapiens, UniProt Q9NPI1); assay: BROMOscan BromoKdMAX; format: binding
T5 construct: T7 phage strains displaying bromodomains were grown in parallel; purchased DiscoverX; host or cells: T7 phage in E. coli host derived from BL21
Method: as §3, §4, §5

BRD4(2) = target: T6, BRD4(2) (Homo sapiens, UniProt O60885); assay: BROMOscan BromoKdMAX; format: binding
T6 construct: T7 phage strains displaying bromodomains were grown in parallel; purchased DiscoverX; host or cells: T7 phage in E. coli host derived from BL21
Method: as §3, §4, §5

TAF1(2) = target: T7, TAF1(2) (Homo sapiens, UniProt P21675); assay: BROMOscan BromoKdMAX; format: binding
T7 construct: T7 phage strains displaying bromodomains were grown in parallel; purchased DiscoverX (BROMOscan / BromoKdMAX service); host or cells: T7 phage in E. coli host derived from BL21
Method: as §3, §4, §5

BRDT(1, 2) = target: T8, BRDT(1, 2) (Homo sapiens, UniProt Q58F21); assay: BROMOscan BromoKdMAX; format: binding
T8 construct: T7 phage strains displaying bromodomains were grown in parallel; purchased DiscoverX; host or cells: T7 phage in E. coli host derived from BL21
Method: as §3, §4, §5

WDR9(2) = target: T9, WDR9(2) (Homo sapiens, UniProt Q9NSI6); assay: BROMOscan BromoKdMAX; format: binding
T9 construct: T7 phage strains displaying bromodomains were grown in parallel; purchased DiscoverX (BROMOscan / BromoKdMAX service); host or cells: T7 phage in E. coli host derived from BL21
Method: as §3, §4, §5

BRD2(1) = target: T10, BRD2(1) (Homo sapiens, UniProt P25440); assay: BROMOscan BromoKdMAX; format: binding
T10 construct: T7 phage strains displaying bromodomains were grown in parallel; purchased DiscoverX; host or cells: T7 phage in E. coli host derived from BL21
Method: as §3, §4, §5

BRD8(2) = target: T11, BRD8(2) (Homo sapiens, UniProt Q9H0E9); assay: BROMOscan BromoKdMAX; format: binding
T11 construct: T7 phage strains displaying bromodomains were grown in parallel; purchased DiscoverX; host or cells: T7 phage in E. coli host derived from BL21
Method: as §3, §4, §5

CECR2 = target: T12, CECR2 (Homo sapiens, UniProt Q9BXF3); assay: BROMOscan BromoKdMAX; format: binding
T12 construct: T7 phage strains displaying bromodomains were grown in parallel; purchased DiscoverX; host or cells: T7 phage in E. coli host derived from BL21
Method: as §3, §4, §5

BRD2(1, 2) = target: T13, BRD2(1, 2) (Homo sapiens, UniProt P25440); assay: BROMOscan BromoKdMAX; format: binding
T13 construct: T7 phage strains displaying bromodomains were grown in parallel; purchased DiscoverX; host or cells: T7 phage in E. coli host derived from BL21
Method: as §3, §4, §5

TRIM24(PHD, Bromo.) = target: T14, TRIM24(PHD, Bromo.) (Homo sapiens, UniProt O15164); assay: BROMOscan BromoKdMAX; format: binding
T14 construct: TRIM24(PHD, Bromo.); purchased DiscoverX (BROMOscan / BromoKdMAX service); host or cells: T7 phage in E. coli host derived from BL21
Method: as §3, §4, §5

PCAF = target: T15, PCAF (Homo sapiens, UniProt Q92831); assay: BROMOscan BromoKdMAX; format: binding
T15 construct: T7 phage strains displaying bromodomains were grown in parallel; purchased DiscoverX (BROMOscan / BromoKdMAX service); host or cells: T7 phage in E. coli host derived from BL21
Method: as §3, §4, §5

BRDT(2) = target: T16, BRDT(2) (Homo sapiens, UniProt Q58F21); assay: BROMOscan BromoKdMAX; format: binding
T16 construct: T7 phage strains displaying bromodomains were grown in parallel; purchased DiscoverX; host or cells: T7 phage in E. coli host derived from BL21
Method: as §3, §4, §5

BRPF1 = target: T17, BRPF1 (Homo sapiens, UniProt P55201); assay: BROMOscan BromoKdMAX; format: binding
T17 construct: T7 phage strains displaying bromodomains were grown in parallel; purchased DiscoverX; host or cells: T7 phage in E. coli host derived from BL21
Method: as §3, §4, §5

[1] = target: T18, BRD4(full-length, short-iso.) (Homo sapiens, UniProt O60885); assay: BROMOscan BromoKdMAX; format: binding
T18 construct: BRD4 (full-length, short-iso.); purchased DiscoverX; host or cells: T7 phage in E. coli host derived from BL21 (general protocol)
Method: as §3, §4, §5

TAF1L(2) = target: T19, TAF1L(2) (Homo sapiens, UniProt Q8IZX4); assay: BROMOscan BromoKdMAX; format: binding
T19 construct: T7 phage strains displaying bromodomains were grown in parallel; purchased DiscoverX (BROMOscan / BromoKdMAX service); host or cells: T7 phage in E. coli host derived from BL21
Method: as §3, §4, §5

BRD2(2) = target: T20, BRD2(2) (Homo sapiens, UniProt P25440); assay: BROMOscan BromoKdMAX; format: binding
T20 construct: T7 phage strains displaying bromodomains were grown in parallel; purchased DiscoverX; host or cells: T7 phage in E. coli host derived from BL21
Method: as §3, §4, §5

BRD9 = target: T21, BRD9 (Homo sapiens, UniProt Q9H8M2); assay: BROMOscan BromoKdMAX; format: binding
T21 construct: T7 phage strains displaying bromodomains were grown in parallel; purchased DiscoverX; host or cells: T7 phage in E. coli host derived from BL21
Method: as §3, §4, §5

BRD4(1) = target: T22, BRD4(1) (Homo sapiens, UniProt O60885); assay: BROMOscan BromoKdMAX; format: binding
T22 construct: T7 phage strains displaying bromodomains were grown in parallel; purchased DiscoverX; host or cells: T7 phage in E. coli host derived from BL21
Method: as §3, §4, §5

T4 sequence (Q9H0E9 706-811 limits assumed): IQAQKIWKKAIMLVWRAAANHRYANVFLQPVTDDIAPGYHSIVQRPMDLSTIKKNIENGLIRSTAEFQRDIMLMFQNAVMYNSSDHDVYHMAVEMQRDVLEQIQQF
T9 sequence (Q9NSI6 1313-1418 limits assumed): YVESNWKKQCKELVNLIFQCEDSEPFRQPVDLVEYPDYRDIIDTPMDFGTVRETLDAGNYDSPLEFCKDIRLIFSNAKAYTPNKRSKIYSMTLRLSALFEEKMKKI
T11 sequence (Q9H0E9 1099-1207 limits assumed): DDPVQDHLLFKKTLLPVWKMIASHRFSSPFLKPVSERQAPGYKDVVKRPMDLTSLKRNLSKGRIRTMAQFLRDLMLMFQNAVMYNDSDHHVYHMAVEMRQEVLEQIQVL
T19 sequence (Q8IZX4 1517-1626 limits assumed): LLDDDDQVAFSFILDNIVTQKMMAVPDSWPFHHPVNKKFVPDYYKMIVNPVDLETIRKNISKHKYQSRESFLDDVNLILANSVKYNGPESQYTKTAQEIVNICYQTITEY
T7 sequence (P21675 1519-1628 limits assumed): as the sequence (Q8IZX4 1517-1626 limits assumed) above, with M46V, V51M, I102V, I107L counted along it
T14 sequence (O15164 824-1006 limits assumed): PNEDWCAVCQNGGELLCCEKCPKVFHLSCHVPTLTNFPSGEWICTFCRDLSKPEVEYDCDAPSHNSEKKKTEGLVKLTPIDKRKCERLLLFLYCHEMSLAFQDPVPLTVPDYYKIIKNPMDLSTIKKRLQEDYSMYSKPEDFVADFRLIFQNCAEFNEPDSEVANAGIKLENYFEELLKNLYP
T1 sequence (O15164 899-1004 limits assumed): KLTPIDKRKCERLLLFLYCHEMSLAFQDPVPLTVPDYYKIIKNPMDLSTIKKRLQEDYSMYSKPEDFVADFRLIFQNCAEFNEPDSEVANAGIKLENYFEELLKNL
T10 sequence (P25440 74-180 limits assumed): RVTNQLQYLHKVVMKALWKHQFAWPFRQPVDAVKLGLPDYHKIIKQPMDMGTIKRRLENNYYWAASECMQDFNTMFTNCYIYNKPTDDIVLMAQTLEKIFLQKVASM
T12 sequence (Q9BXF3 434-538 limits assumed): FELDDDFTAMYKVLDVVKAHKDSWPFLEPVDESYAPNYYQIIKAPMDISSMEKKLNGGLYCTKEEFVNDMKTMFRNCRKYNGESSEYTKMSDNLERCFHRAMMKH
T5 sequence (Q9NPI1 131-235 limits assumed): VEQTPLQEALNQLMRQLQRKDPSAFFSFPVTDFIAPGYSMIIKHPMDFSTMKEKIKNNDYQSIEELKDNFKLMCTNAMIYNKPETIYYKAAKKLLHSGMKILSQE
T20 sequence (P25440 344-453 limits assumed): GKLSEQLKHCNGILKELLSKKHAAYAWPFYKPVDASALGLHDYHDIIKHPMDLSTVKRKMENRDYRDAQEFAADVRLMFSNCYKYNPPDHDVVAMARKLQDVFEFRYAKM
T13 sequence (P25440 71-455 limits assumed): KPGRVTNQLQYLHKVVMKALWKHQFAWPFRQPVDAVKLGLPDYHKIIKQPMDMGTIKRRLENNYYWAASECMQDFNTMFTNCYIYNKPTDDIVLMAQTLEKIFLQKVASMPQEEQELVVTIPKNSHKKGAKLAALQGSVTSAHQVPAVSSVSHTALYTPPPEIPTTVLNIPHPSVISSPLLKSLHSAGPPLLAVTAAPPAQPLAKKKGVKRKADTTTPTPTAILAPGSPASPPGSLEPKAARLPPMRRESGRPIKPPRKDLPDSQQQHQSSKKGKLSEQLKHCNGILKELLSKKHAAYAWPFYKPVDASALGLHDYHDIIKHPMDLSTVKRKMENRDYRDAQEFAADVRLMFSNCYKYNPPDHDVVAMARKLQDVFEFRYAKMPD
T21 sequence (Q9H8M2 136-240 limits assumed): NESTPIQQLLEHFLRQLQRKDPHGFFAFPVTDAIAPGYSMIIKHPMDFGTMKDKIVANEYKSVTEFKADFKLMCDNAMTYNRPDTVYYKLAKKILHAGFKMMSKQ
T15 sequence (Q92831 723-827 limits assumed): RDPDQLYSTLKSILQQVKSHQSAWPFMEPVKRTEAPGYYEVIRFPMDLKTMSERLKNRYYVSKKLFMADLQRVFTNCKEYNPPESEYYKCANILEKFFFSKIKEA
T17 sequence (P55201 628-732 limits assumed): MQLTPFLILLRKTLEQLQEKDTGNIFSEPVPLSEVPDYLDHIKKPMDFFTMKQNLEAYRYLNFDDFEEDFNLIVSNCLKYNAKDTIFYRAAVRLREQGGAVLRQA

With `CO[C@H]1CC[C@H](n2c([C@@H]3CCCC(=O)N3c3ccc(F)c(F)c3)nc3cc(-c4c(C)noc4C)ccc32)CC1` [CCS1477] the “EGFR inhibitor induced gene expression (ALPP, HOPX)” value (HCC827 cells) was “reverse EGFR inhibitor induced gene expression”, the “EGFR inhibitor induced gene expression (ALPP, HOPX)” value (NCI-H1975 cells) was “reverse EGFR inhibitor induced gene expression” and the “Development of drug resistance / re-growth” value (HCC4006 cells; HCC4006, combined with 100 nM osimertinib) was “prevent the development of drug resistance”. For the same molecule, the “Effect on cell proliferation on their own” value (HCC4006 cells; HCC4006, single agent (1 μM Compound A, 0.2 μM Compound C, 0.2 μM CCS1477, 1 μM FT-6876, 0.2 μM GNE-781)) was “do not affect cell proliferation”, the Kd (TRIM24(Bromo.)) was 0.68 µM and the Kd (BRDT(1)) was 0.39 µM. The Kd (BRD4(1, 2)) was 6.9 µM, the Kd (BRD8(1)) was over 10 µM and the Kd (BRD7) was 5.1 µM. For the same molecule, the Kd (BRD4(2)) was 5.2 µM, the Kd (TAF1(2)) was 7.9 µM and the Kd (BRDT(1, 2)) was 2.4 µM. For the same molecule, the Kd (WDR9(2)) was over 10 µM, the Kd (BRD2(1)) was 0.23 µM and the Kd (BRD8(2)) was over 10 µM. For the same molecule, the Kd (CECR2) was over 10 µM, the Kd (BRD2(1, 2)) was 0.61 µM and the Kd (TRIM24(PHD, Bromo.)) was 1.9 µM. It also gave a Kd (PCAF) of over 10 µM, a Kd (BRDT(2)) of 8.9 µM and a Kd (BRPF1) of 1.4 µM. The Kd [1] was 0.44 µM, the Kd (TAF1L(2)) was over 10 µM and the Kd (BRD2(2)) was 2.1 µM. The Kd (BRD9) was 0.79 µM and the Kd (BRD4(1)) was 0.25 µM.
